The record followed here is ChEMBL document CHEMBL4052763, “Discovery of dual Axl/VEGF-R2 inhibitors as potential anti-angiogenic and anti-metastatic drugs for cancer chemotherapy” (Bioorg Med Chem Lett, 2017).

Molecules are shown by their SMILES.

For data set [1], the target named is T1, Tyrosine-protein kinase receptor UFO (Homo sapiens, UniProt P30530).
T1 sequence (P30530 whole entry): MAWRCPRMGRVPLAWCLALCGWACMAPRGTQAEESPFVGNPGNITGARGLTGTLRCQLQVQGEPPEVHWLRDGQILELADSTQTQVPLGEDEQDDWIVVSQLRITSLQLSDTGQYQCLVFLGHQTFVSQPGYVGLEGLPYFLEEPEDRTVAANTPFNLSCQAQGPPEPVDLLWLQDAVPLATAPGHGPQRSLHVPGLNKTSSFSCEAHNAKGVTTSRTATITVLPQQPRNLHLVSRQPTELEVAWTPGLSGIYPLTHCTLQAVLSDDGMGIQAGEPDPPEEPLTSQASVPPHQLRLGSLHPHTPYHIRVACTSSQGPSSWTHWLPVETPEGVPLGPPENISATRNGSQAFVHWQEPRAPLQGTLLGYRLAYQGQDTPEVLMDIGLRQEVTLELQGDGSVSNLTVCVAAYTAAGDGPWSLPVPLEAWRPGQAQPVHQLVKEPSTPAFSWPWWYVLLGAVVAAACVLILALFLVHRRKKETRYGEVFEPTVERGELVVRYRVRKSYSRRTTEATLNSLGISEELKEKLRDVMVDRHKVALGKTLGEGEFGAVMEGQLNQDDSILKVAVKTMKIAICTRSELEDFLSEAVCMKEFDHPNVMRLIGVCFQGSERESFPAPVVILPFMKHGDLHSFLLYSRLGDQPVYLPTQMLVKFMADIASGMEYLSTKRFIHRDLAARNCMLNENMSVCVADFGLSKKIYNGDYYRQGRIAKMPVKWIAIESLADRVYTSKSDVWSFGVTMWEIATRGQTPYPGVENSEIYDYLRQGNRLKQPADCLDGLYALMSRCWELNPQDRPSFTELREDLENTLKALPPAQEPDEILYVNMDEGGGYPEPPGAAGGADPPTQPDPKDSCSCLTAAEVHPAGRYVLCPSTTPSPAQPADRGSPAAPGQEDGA
As to the kind of experiment: Inhibition of Axl in human HeLa cells assessed as reduction in AKT phosphorylation at Ser 473 residues pre-incubated for 1 hr before preclustered anti-Axl antibody stimulation by Western blot analysis. It counts as cell-based.

Data set [2] deals with Vascular endothelial growth factor receptor 2 (Homo sapiens, UniProt P35968). In words: Inhibition of VEGF stimulated VEGFR2 phosphorylation at […] residues in HUVEC preincubated for 1 hr followed by VEGF addition measured after 5 mins by Western blot analysis.
Vascular endothelial growth factor receptor 2, sequence (P35968 whole entry): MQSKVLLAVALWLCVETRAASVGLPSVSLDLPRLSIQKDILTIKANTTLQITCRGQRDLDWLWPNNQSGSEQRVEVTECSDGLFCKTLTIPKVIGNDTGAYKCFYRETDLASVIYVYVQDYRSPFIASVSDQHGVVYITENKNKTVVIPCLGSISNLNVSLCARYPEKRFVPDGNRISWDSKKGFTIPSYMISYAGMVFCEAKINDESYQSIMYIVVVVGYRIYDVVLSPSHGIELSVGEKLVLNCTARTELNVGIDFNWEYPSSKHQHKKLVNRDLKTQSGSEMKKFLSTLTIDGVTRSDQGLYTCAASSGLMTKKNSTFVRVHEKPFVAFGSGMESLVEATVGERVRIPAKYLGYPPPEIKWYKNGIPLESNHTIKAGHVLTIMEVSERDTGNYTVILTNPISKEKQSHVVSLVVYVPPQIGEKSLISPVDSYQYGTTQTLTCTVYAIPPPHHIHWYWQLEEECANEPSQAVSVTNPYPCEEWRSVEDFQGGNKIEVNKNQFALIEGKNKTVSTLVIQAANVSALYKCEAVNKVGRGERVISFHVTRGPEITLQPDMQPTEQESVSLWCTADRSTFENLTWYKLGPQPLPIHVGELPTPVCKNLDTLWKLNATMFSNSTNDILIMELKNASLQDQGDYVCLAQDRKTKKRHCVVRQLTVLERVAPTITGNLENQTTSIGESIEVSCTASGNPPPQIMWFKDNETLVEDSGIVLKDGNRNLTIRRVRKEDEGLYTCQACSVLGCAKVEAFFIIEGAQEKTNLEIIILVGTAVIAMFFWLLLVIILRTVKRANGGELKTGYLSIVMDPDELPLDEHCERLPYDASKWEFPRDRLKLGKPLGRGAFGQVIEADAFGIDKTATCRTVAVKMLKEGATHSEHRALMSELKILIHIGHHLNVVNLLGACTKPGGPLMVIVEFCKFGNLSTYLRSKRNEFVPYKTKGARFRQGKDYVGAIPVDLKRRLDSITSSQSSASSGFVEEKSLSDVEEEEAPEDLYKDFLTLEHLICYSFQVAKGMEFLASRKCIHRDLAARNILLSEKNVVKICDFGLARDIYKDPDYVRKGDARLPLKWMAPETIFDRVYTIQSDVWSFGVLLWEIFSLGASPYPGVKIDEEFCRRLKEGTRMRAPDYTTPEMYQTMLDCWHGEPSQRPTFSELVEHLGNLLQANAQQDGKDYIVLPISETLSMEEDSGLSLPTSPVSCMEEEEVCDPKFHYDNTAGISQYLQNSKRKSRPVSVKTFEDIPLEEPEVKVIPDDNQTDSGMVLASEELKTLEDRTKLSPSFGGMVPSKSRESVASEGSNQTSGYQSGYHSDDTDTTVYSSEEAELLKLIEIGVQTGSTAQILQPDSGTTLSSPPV
For data set [3], the target named is Insulin receptor (Homo sapiens, UniProt P06213). As to the kind of experiment: Inhibition of insulin stimulated INSR phosphorylation in human HeLa cells preincubated for 1 hr followed by insulin addition measured after 5 mins by Western blot analysis. The format is cell-based.
Insulin receptor, sequence (P06213 28-758 limits assumed): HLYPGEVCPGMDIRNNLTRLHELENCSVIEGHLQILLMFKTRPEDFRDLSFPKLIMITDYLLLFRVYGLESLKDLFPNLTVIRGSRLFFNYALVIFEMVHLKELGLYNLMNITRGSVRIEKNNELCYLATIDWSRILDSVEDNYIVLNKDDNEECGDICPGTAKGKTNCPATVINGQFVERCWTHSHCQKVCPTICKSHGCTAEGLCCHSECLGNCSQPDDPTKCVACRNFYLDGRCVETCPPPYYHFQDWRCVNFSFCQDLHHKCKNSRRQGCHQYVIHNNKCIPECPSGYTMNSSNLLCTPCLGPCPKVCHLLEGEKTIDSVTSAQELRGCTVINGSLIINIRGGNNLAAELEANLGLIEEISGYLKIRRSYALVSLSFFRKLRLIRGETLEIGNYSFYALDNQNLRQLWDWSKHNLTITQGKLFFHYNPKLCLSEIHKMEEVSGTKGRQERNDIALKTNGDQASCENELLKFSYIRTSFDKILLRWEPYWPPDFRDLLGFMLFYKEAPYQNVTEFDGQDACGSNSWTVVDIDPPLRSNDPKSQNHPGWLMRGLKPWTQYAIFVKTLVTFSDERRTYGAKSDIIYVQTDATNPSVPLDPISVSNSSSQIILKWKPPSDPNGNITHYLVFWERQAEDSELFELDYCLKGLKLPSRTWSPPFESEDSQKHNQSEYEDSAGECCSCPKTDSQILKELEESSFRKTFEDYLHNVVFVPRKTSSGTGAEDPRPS
Insulin receptor, sequence (P06213 763-1382 limits assumed): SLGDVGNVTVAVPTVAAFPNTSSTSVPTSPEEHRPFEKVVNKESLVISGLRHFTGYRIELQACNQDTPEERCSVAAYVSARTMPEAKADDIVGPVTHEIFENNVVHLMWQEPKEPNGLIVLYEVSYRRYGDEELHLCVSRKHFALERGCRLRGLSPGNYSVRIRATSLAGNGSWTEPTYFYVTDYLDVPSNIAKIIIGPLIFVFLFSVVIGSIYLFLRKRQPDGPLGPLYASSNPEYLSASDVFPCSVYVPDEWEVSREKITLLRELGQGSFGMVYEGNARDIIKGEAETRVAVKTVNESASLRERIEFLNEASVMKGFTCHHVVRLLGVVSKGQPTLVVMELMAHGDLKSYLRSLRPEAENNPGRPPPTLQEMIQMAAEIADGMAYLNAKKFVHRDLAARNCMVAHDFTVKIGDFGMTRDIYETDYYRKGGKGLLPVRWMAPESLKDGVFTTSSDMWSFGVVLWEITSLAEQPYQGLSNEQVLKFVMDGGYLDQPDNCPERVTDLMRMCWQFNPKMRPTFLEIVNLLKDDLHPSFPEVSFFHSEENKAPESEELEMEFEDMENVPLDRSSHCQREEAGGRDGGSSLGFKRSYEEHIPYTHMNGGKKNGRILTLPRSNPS
In data set [4] the test system is MDA-MB-231. As to the kind of experiment: Antitumor activity against human MDA-MB-231 cells xenografted in nu/nu mouse assessed as tumor growth delay at 125 mg/kg, po bid after 21 days relative to control. It counts as functional.
For data set [5], the system named is CAKI-1. In words: Antitumor activity against human Caki1 cells xenografted model assessed as tumor growth inhibition at 85 mg/kg, po bid relative to control. The format is functional. Conditions: CAKI-1, po, read-out: TGI.
Data set [6] concerns MDA-MB-231. As to the kind of experiment: Antitumor activity against human MDA-MB-231 cells xenografted in nu/nu mouse assessed as tumor growth inhibition at 85 mg/kg, po bid after 21 days relative to control. It counts as functional. The settings on record: MDA-MB-231, po, 504 h, read-out: TGI.
In data set [7] the test system is MDA-MB-231. In words: Antitumor activity against human MDA-MB-231 cells xenografted in nu/nu mouse assessed as tumor growth inhibition at 125 mg/kg, po bid after 21 days relative to control. It counts as functional. The settings on record: MDA-MB-231, po, 504 h, read-out: TGI.
The test system of data set [8] is Mus musculus. As to the kind of experiment: Inhibition of fibroblast growth factor-induced neovascularization in mouse corneal micropocket at 100 mg/kg, bid relative to control. The format is functional.
Data set [9] deals with Mus musculus. As to the kind of experiment: Inhibition of fibroblast growth factor-induced neovascularization in mouse corneal micropocket at 50 mg/kg, bid relative to control. It counts as functional.
Data set [10] relates to Mus musculus. As to the kind of experiment: Toxicity in nu/nu mouse xenografted with human MDA-MB-231 cells at 125 mg/kg, po bid after 21 days. The format is organism-based. Conditions: in vivo, 504 h.
Data set [11] has as its system Mus musculus. In words: Toxicity in nu/nu mouse xenografted with human MDA-MB-231 cells at 85 mg/kg, po bid after 21 days. The format is organism-based. The settings on record: in vivo, 504 h.
In data set [12] the test system is MDA-MB-231. As to the kind of experiment: Antitumor activity against human MDA-MB-231 cells xenografted in nu/nu mouse assessed as tumor growth inhibition at 80 mg/kg, qd after 21 days relative to control. The format is functional. The settings on record: MDA-MB-231, 504 h, read-out: TGI.
Data set [13] relates to CAKI-1. In words: Antitumor activity against human Caki1 cells xenografted model assessed as tumor growth inhibition at 80 mg/kg, po qd relative to control. It counts as functional. Conditions: CAKI-1, po, read-out: TGI.
Data set [14] deals with Mus musculus. As to the kind of experiment: Inhibition of fibroblast growth factor-induced neovascularization in mouse corneal micropocket at 80 mg/kg, qd relative to control. The format is functional.
Data set [15] in a line: Aqueous solubility of the compound. It counts as physicochemical. The settings on record: buffer.
Data set [16] is described as follows: Oral bioavailability in Sprague-Dawley rat. The format is ADME, organism-based. Conditions: in vivo.
Data set [17] addresses T1, Tyrosine-protein kinase receptor UFO. As to the kind of experiment: Inhibition of N-terminal GST-tagged human Axl (464 to 885 end residues) cytoplasmic domain expressed in baculovirus expression system using HS1 peptide as substrate after 40 mins in presence of ATP by fluorescence polarization assay.
The nature of data set [18]: Clearance in iv dosed Sprague-Dawley rat. The format is ADME, organism-based. The settings on record: in vivo.
Data set [19] in a line: Volume of distribution at steady state in iv dosed Sprague-Dawley rat. The settings on record: in vivo, read-out: Vdss. The format is ADME, organism-based.
Data set [20] in a line: Half life in iv dosed Sprague-Dawley rat. The format is ADME, organism-based. Conditions: in vivo.

Turning to `Cc1csc2c(-n3nc(Nc4ccc(N5CCN(C6CC7CCC6C7)CC5)c(F)c4)nc3N)ncnc12` (racemic), the EC50 in [1] worked out at 62 nM; in data set [2], 90 nM.

As to `Nc1nc(Nc2ccc(N3CCN(C4CC5CCC4C5)CC3)c(Cl)c2)nn1-c1ncnc2sccc12` (racemic), the EC50 in data set [1] is 85 nM; in data set [2], 160 nM.

Take `COc1cc2ncnc(-n3nc(Nc4ccc(C5CCN(C)CC5)cc4)nc3N)c2cc1OC`: the concentration giving a half-maximal response (EC50) is 16 nM in data set [1], 1320 nM in [3] and 14 nM in data set [2].

Take `COc1cc2ncnc(-n3nc(Nc4ccc(N5CC[C@H](N(C)C)C5)cc4)nc3N)c2cc1OC`: the EC50 is 193 nM in data set [1], 4760 nM in [3] and 19 nM in data set [2].

On to `COc1cc2ncnc(-n3nc(Nc4ccc(OC5CCCN(C)C5)cc4)nc3N)c2cc1OC` (configuration not stated), for which the EC50 was 52 nM in data set [1], 1800 nM in data set [3] and 4 nM in [2].

On to `COc1cc2ncnc(-n3nc(Nc4ccc(N5CCN(C6CCCCC6)CC5)c(F)c4)nc3N)c2cc1OC`, for which the EC50 in data set [1] turned out to be 55 nM; in [3] it was 5030 nM; in [2] it was 26 nM.

In the case of `Cc1csc2c(-n3nc(Nc4ccc(OCCN5CCCC5)cc4)nc3N)nc(Cl)nc12`, in data set [3], the response was half-maximal at 582 nM (EC50).

Regarding `Cc1csc2c(-n3nc(Nc4ccc(N5CCN([C@H]6C[C@@H]7CC[C@H]6C7)CC5)c(Cl)c4)nc3N)nc(Cl)nc12`, the Activity is 79% in [4], “Toxic” in [10] and “Non-Toxic” in data set [11]. In addition, the inhibition in vivo at 85 mg/kg in data set [5] came to 80%; in data set [6], 69%. Besides, the 50% effective concentration (EC50) in data set [1] came out at 136 nM. The inhibition in vivo at 125 mg/kg in data set [7] is 83%. Moreover, the inhibition in vivo at 100 mg/kg in data set [8] was 73%. Besides, the inhibition in vivo at 50 mg/kg in [9] amounted to 50%.

As for `CCN(CC)CCNC(=O)c1c(C)[nH]c(/C=C2\C(=O)Nc3ccc(F)cc32)c1C` [SUNITINIB], the inhibition in vivo at 80 mg/kg in data set [12] is 84%; in data set [13], 85%; in data set [14], 78%.

`Nc1nc(Nc2ccc(OCCN3CCCC3)cc2)nn1-c1ncnc2c1sc1ccccc12` registered a concentration giving a half-maximal response (EC50) in data set [3] of 300 nM.

Regarding `Nc1nc(Nc2ccc(OCCN3CCCC3)c(F)c2)nn1C(=O)c1ccc(N2CCOCC2)cc1`, the EC50 is 47 nM in [1] and 2750 nM in data set [3]. In addition, the solubility entry in data set [15] is listed as “Insoluble”. The bioavailability in [16] is below 1%.

In [2], `Cc1nc(-n2nc(Nc3ccc(N4CCN(C5CC6CCC5C6)CC4)cc3)nc2N)c2ccccc2n1` (racemic) came in with an EC50 of 104 nM.

In the case of `Nc1nc(Nc2ccc(N3CCN(C4CC5CCC4C5)CC3)cc2)nn1-c1ncnc2ccc(Cl)cc12` (racemic), the concentration for a half-maximal effect (EC50) in data set [2] was 196 nM.

The compound `Cc1nc(-n2nc(Nc3ccc(OCCN4CCCC4)cc3)nc2N)c2ccccc2n1` displayed a concentration giving a half-maximal response (EC50) in data set [3] of 320 nM.

`Nc1nc(Nc2ccc(OCCN3CCCC3)cc2)nn1-c1ncnc2c1CCC2` registered an EC50 in data set [3] of 1010 nM.

For `Nc1nc(Nc2ccc(OCCN3CCCC3)cc2)nn1-c1nc(Cl)nc2ccccc12`, the EC50 came out at 27 nM in [1] and 241 nM in [3]. The IC50 in data set [17] was 7 nM.

Turning to `CC(C)(C)c1cc2ncnc(-n3nc(Nc4ccc(N5CCN(C6CC7CCC6C7)CC5)c(Cl)c4)nc3N)c2s1` (racemic), the EC50 amounted to 84 nM in data set [1] and 80 nM in data set [2].

With `Nc1nc(Nc2ccc(N3CCN(C4CC5CCC4C5)CC3)cc2)nn1-c1ncnc2ccsc12` (racemic), the EC50 in [1] is 21 nM; in data set [2], 24 nM.

As to `Nc1nc(Nc2ccc(N3CCN(C4CC5CCC4C5)CC3)cc2)nn1-c1nccc2ccccc12` (racemic), the clearance in [18] turned out to be 52 mL/min/kg. Further, the Vd in data set [19] turned out to be 8.8 L/kg. Moreover, the half-life in [20] was 2.3 h.

For the compound `COc1cc2ncnc(-n3nc(Nc4ccc(N5CCN(C6CC7CCC6C7)CC5)c(Cl)c4)nc3N)c2cc1OC` (configuration not stated), the EC50 in data set [3] was above 10000 nM; in [2], 47 nM. The same compound showed a clearance in data set [18] of 117 mL/min/kg. Further, the Vd in [19] was found to be 27 L/kg. In addition, the half-life in data set [20] is 2.7 h.

Consider `COc1cc2ncnc(-n3nc(Nc4ccc(OCCN5CCCC5)c(Cl)c4)nc3N)c2cc1OC`, for which the EC50 in [3] amounted to 4170 nM.

For `COc1cc2ncnc(-n3nc(Nc4ccc(N5CCN(C)CC5)cc4)nc3N)c2cc1OC`, the results for the EC50 in data set [1], in data set [3] and in data set [2] were 39 nM, 4580 nM and 3 nM, respectively.

Take `Nc1nc(Nc2ccc(N3CCN(C4CC5CCC4C5)CC3)cc2)nn1-c1ncnc2c1sc1ncccc12` (racemic): the EC50 in data set [1] was determined as 52 nM; in [2], 24 nM.

On to `Cc1csc2c(-n3nc(Nc4ccc(N5CCN(C6CC7CCC6C7)CC5)cc4)nc3N)nc(Cl)nc12` (racemic), for which the midpoint of the response in data set [2], the EC50, lay at 65 nM. Besides, the clearance in data set [18] stood at 11.5 mL/min/kg. Also, the Vd in data set [19] was found to be 4.4 L/kg. Besides, in [20], the half-life is 4.9 h.

In data set [2], `Nc1nc(Nc2ccc(N3CCN(C4CC5CCC4C5)CC3)cc2)nn1-c1ncnc2ccc(F)cc12` (racemic) came in with an EC50 of 146 nM. Further, the clearance in data set [18] amounted to 44 mL/min/kg. Moreover, the Vd in [19] came out at 7.9 L/kg. The half-life in [20] is 2.3 h.

Regarding `Nc1nc(Nc2ccc(OCCN3CCCC3)c(F)c2)nn1-c1ccccn1`, the EC50 in data set [1] was found to be 334 nM.

Consider `Cc1csc2c(-n3nc(Nc4ccc(N5CCN([C@@H]6C[C@H]7CC[C@@H]6C7)CC5)c(Cl)c4)nc3N)nc(Cl)nc12`, for which the EC50 in data set [1] stood at 216 nM.

Compound `Nc1nc(Nc2ccc(OCCN3CCCC3)cc2)nn1-c1ncnc2ccc(Cl)cc12` had a half-maximal effective concentration (EC50) in [3] of 14 nM.

In turn, `Nc1nc(Nc2ccc(OCCN3CCCC3)cc2)nn1-c1ncnc2ccc(F)cc12` displayed an EC50 in [3] of 126 nM.

On to `Nc1nc(Nc2ccc(N3CCN(C4CC5CCC4C5)CC3)c(F)c2)nn1-c1ncnc2ccsc12` (racemic), for which the 50% effective concentration (EC50) in data set [1] came to 20 nM.
